Laboratory results from US12590950B2, “Methods for predicting ER-mediated DNA damage” (UNIVERSITY OF MASSACHUSETTS, priority 2019, dated 2026).

Experiments:
mammary epithelium = test: Acute oral exposure of ovariectomized mice: Ki67 proliferation of luminal epithelial cells; type: in vivo, mouse; settings: 4 days, E2 250, BP3 3,000, PP 10,000 μg/kg/day
From the text: Animal Treatment: Forty mature female mice (8 weeks old) BALB/c mice were purchased from Jackson Laboratory and housed in temperature-controlled facilities with a 12-hour alternating day/night light cycle and fed LabChow 5058 ad libitum. All procedures were in accordance with the national guidelines for the care and use of animals and approved by the University of Massachusetts Amherst's Institutional Animal Care and Use Committee.
The mice were ovariectomized before treatment. Briefly, each mouse was anaesthetized with a mix of isofluorance and oxygen. The flanks were shaved, sterilized with betadine and cleaned with alcohol. An incision was made to the skin on the right flank. The underlying muscle layer was nicked to reveal a small hole through which ovary was pulled out by grasping the periovarian fat. A Serrifin clamp was used to hold the ovary. After making sure the blood vessels were constricted to prevent […], the ovary was cut from the uterine horn. The periovarian fat was restored into the peritoneum. The peritoneum was closed with one or two stiches and the skin was closed with 9 mm wound clips. The procedure was repeated on the contralateral side. The mouse was monitored for a week post-procedure and wound clips were removed after 10 days. After 1 week of recovery, the mice began an acute oral treatment via pipette with one of three different compounds prepared in tocopherol-stripped corn oil for 4 days. Each mouse was administered 1 μL of oil per gram of body weight to deliver 250 μg/kg/d E2, 3000 μg/kg/d BP3 or 10000 μg/kg/d PP or vehicle control. […]
Immunostaining of mouse mammary gland: Freshly cut […] paraffin-embedded sections were deparaffinized/rehydrated with 100% xylenes 3 times for 5 min each, 2 times with 100% ethanol for 5 min each, 95% ethanol for 3 min and 70% ethanol for 3 min. […] Analysis of S9.6 intensity per nucleus or foci per nucleus were calculated using Nikon analysis software, where DAPI was used as a mask for the nucleus. […] Positive cells were counted using ImageJ software. 1200 cells were counted to determine percent Ki67 positive.

T47D cells [1] = test: Cell proliferation assay (alamar blue) in T47D cells; type: cell-based, human
Experimental: Cell Proliferation Assay: T47D cells grown in clearing media for 72 h was plated as 100 μl of cells suspension having 5000 or 10000 cells per well on five 96 well plates (one for each day). The 96 well plate had 12 cell-free wells for a blank and 7 wells per treatment on each plate. After 24 h, 100 μl of E2, BP3 or PP containing media was added to appropriate wells on each plate to reach the desired final concentration in each well. All plates were maintained in a 37° C., 5% CO2 incubator until media was exchanged, on one plate per day, for 10% Alamar Blue in plating media. Plates were read at the same time each day at 4 hr and 8 hr after media exchange on a BioTek Synergy 2 plate reader (Winooski, VT) at 570 nm and 600 nm. Percent alamar blue reduction was calculated as per the following equation on the AlamarBlue protocol: […]

T47D cells [2] = test: S9.6 immunostaining (R-loops) in T47D cells; type: cell-based, human; settings: 5 μM, vs vehicle-treated control
Experimental: Immunostaining: Cells were grown in clearing media for 48 h and plated on 20 mm coverslip in 12 well plates with a density of 2×10^5 cells/well. After 24 h of growth, cells were treated with 10 nM E2, 1 or 5 μM BP3, and 1 or 5 μM PP with or without 1 μM fulvestrant. γH2AX/ERα: Cells were fixed in ice-cold methanol (100%) for 10 mins and quenched with 0.1 M Glycine for 15 mins. Cells were washed with 1×PBS, blocked in 2% BSA/PBS with 0.1% Triton-X 100 for 1 hr at room temperature (RT), incubated overnight with γH2AX antibody (Cell Signaling #9718 S) or ERα antibody (Santa Cruz Biotechnology #sc-8002) at 4° C. and 1 hour with secondary antibody. S9.6: Cells were fixed in ice-cold 100% methanol for 10 min at −20° C., permeabilized in 100% acetone for 1 min at RT, blocked for 30 min in saline sodium citrate pH 7 (SSC, 4×), 3% BSA, 0.1% Triton-X and incubated with S9.6 (Kerafast #ENH001) 2 hr at RT followed by 1 h with secondary antibody. If indicated, slides were treated with RNase H (NEB #M0297L) for 4 hr at 37° C. prior to incubation with primary antibody. Stained cells were mounted with Vectashield mounting medium containing DAPI (Vector Laboratories #H-1200). […] Analysis of γH2AX and S9.6 intensity per nucleus or foci per nucleus was calculated using Nikon analysis software, where DAPI was used as a mask for the nucleus.

[3] = tested on: parental 76N-tert cell line; test: S9.6 immunostaining (R-loops) in parental 76N-tert cells without ERα; type: cell-based, human; settings: no ERα
Experimental: Generation of 76N-Tert-ESR1 cells: The 76N-Tert cell line, a human mammary epithelial cell line immortalized with expression of human telomerase reverse transcriptase (TERT) was provided (35). These cells were grown in F-media (250 mL DMEM (-pyruvate) (Gibco #11965-092), 250 mL Ham's F12 (Gibco #11765-054), 5% FBS, 250 ng/mL hydrocortisone (Sigma #H4001), 10 ng/mL human epidermal growth factor (Tonbo Biosciences #21-8356-U100), 8.6 ng/mL cholera toxin vibrio (Millipore Sigma #227035), 1 μg/mL human insulin solution, and 1× antibiotic-antimycotic and passaged every 2-3 days.
Immunostaining: Cells were grown in clearing media for 48 h and plated on 20 mm coverslip in 12 well plates with a density of 2×10^5 cells/well. After 24 h of growth, cells were treated with 10 nM E2, 1 or 5 μM BP3, and 1 or 5 μM PP with or without 1 μM fulvestrant. γH2AX/ERα: Cells were fixed in ice-cold methanol (100%) for 10 mins and quenched with 0.1 M Glycine for 15 mins. Cells were washed with 1×PBS, blocked in 2% BSA/PBS with 0.1% Triton-X 100 for 1 hr at room temperature (RT), incubated overnight with γH2AX antibody (Cell Signaling #9718 S) or ERα antibody (Santa Cruz Biotechnology #sc-8002) at 4° C. and 1 hour with secondary antibody. S9.6: Cells were fixed in ice-cold 100% methanol for 10 min at −20° C., permeabilized in 100% acetone for 1 min at RT, blocked for 30 min in saline sodium citrate pH 7 (SSC, 4×), 3% BSA, 0.1% Triton-X and incubated with S9.6 (Kerafast #ENH001) 2 hr at RT followed by 1 h with secondary antibody. If indicated, slides were treated with RNase H (NEB #M0297L) for 4 hr at 37° C. prior to incubation with primary antibody. Stained cells were mounted with Vectashield mounting medium containing DAPI (Vector Laboratories #H-1200). Slides were imaged at 60× (immersion oil) with Nikon A1 Spectral Confocal microscope. Analysis of γH2AX and S9.6 intensity per nucleus or foci per nucleus was calculated using Nikon analysis software, where DAPI was used as a mask for the nucleus.

Row | Compound | proliferation (Ki67) of mammary luminal epithelial cells (mammary epithelium) | Slope of growth curve (T47D cells [1]; 1 μM) | Slope of growth curve (T47D cells [1]; 10 μM) | proliferation (T47D cells [1]; 10 μM) | nuclear S9.6 foci (R-loops) (T47D cells [2]) | nuclear S9.6 staining [3] | Slope of growth curve (T47D cells [1]; 5 μM) | Slope of growth curve (T47D cells [1]; 50 μM) | proliferation (T47D cells [1]; 5 or 50 μM) | Slope of growth curve (T47D cells [1]; 0.5 nM)
1 | CCCOC(=O)c1ccc(O)cc1 [PP, propyl parahydroxybenzoate] | neither BP3 nor PP elicited significant responses | 0.01856 | 0.06387 | stimulates significant proliferation | significantly higher | low nuclear S9.6 staining |  |  |  | 
2 | COc1ccc(C(=O)c2ccccc2)c(O)c1 [BP3, 2-Hydroxy-4-methoxybenzophenone] | neither BP3 nor PP elicited significant responses |  |  |  | significantly higher | low nuclear S9.6 staining | 0.0202 | 0.01581 | marginal effect | 
3 | C[C@]12CC[C@@H]3c4ccc(O)cc4CC[C@H]3[C@@H]1CC[C@@H]2O [E2, 17β-estradiol, reference compound] | stimulated |  |  |  |  | low nuclear S9.6 staining |  |  |  | 0.08495
